Measurements reported in patent US10934282B2, “Heteroaromatic modulators of the retinoid-related orphan receptor gamma” (LEO PHARMA A/S, priority 2016, dated 2021).

Tests used:
[1] = molecular target: T1, human RORgt nuclear receptor (RORgT ligand binding domain protein) (Homo sapiens, UniProt P51449); test: ROR-gamma binding assay (Scintillation Proximity Assay, displacement of [3H]-25-hydroxycholesterol); conditions: EC50, SPA, 15 nM [3H]-25-Hydroxycholesterol, RORgT LBD 12 nM
T1 construct: purchased Proteros Biostructures GmbH
T1 sequence (P51449 with tags, fused parts or gaps): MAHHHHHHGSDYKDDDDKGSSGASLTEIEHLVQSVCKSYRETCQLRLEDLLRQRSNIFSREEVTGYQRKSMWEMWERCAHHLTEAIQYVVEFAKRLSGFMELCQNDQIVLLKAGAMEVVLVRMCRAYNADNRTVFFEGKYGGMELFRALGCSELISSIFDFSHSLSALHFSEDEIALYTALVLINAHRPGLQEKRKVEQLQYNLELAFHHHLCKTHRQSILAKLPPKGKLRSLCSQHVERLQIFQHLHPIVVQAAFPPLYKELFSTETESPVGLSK
Protocol: This assay is used to evaluate the binding affinity of compounds to the ligand-binding pocket of the human RORgt nuclear receptor based on displacement of a radio-ligand. The EC50 values are calculated using a four parameter fit. Compounds binding with high affinity to RORgt will have low EC50 values.
The assay is a Scintillation Proximity Assay (SPA) that involves competition between an unlabeled test compound and tritium-labeled 25-hydroxycholesterol for binding to RORgT ligand binding domain (LBD) protein immobilized on the surface of SPA beads. These beads contain a scintillant that emits light if excited by a radioactive particle, and this light is detected using a scintillation counter. In this assay, tritium-labelled 25-hydroxycholesterol is used as radiotracer.
400 nL of titrated test and reference compounds in DMSO were transferred by the Echo liquid handling system to a 384-well assay plate followed by addition of 5 μL [3H]-25-Hydroxycholesterol (Perkin Elmer) and 35 μL diluted RORgT LBD protein with the following amino acid sequence (HIS-FLG-tag): MAHHHHHHGSDYKDDDDKGSSGASLTEIEHLVQSVCKSYRETCQLRLEDLLRQRSNIFSREEVTGYQRKSMWEMWERCAHHLTEAIQYVVEFAKRLSGFMELCQNDQIVLLKAGAMEVVLVRMCRAYNADNRTVFFEGKYGGMELFRALGCSELISSIFDFSHSLSALHFSEDEIALYTALVLINAHRPGLQEKRKVEQLQYNLELAFHHHLCKTHRQSILAKLPPKGKLRSLCSQHVERLQIFQHLHPIVVQAAFPPLYKELFSTETESPVGLSK (SEQ ID NO: 1) (Purchased from Proteros Biostructures GmbH). After 30 min of preincubation, 40 μL of HIS-TAG PVT SPA beads (Perkin Elmer) were added. The plates were then incubated for minimum 4 hours at room temperature in darkness before measuring the SPA signal using a MicroBeta plate scintillation counter. Final assay conditions were: 50 mM HEPES pH 7.4, 150 mM NaCl, 5 mM MgCl2, 0.1% BSA, 4 μg/well HIS-TAG PVT SPA Beads, 30 ng/well RORgT LBD (equal to a final concentration of 12 nM), 15 nM [^3H]-25-Hydroxycholesterol, 0.5% DMSO and varying concentrations of test compound in a total volume of 80 μL/well. EC50 values were calculated using a 4-parameter non-linear regression curve-fitting model.

[2] = test system: IL-17A levels in human peripheral blood; test: tissue or blood; assay type: cell-based; conditions: 72 h, read-out: Human Whole blood IL-17A (nM)
[3] = test system: IL-17A in Human peripheral mononuclear cells; test: Human PBMC IL-17A assay; assay type: cell-based; conditions: 72 h, EC50, antiCD3/antiCD28-coated beads, 3 days, alpha-LISA
Protocol: This assay measures the IL-17A inhibitory potential of test compounds in Human peripheral mononuclear cells.
Peripheral blood mononuclear cells (PBMC) were isolated from human buffy coats using density grade centrifugation (Lymphoprep, Medinor), washed twice in PBS and frozen at −150° C. for later use.
Test compounds were diluted in DMSO and 70 nL of titrated test and reference compounds were transferred by the Echo liquid handling system to a 384-well assay plate in to give a final concentration of 0.1% DMSO in the wells.
The PBMC were thawed, washed and suspended in RPMI-1640 supplemented with pen/strep, glutamax and 10% bovine calf serum. The cells were mixed with antiCD3/antiCD28-coated beads (1 cells pr one bead) (Milteney T-cell expansion kit), and immediately thereafter the cells were pipetted to the plate at 130,000c/well. The plate was incubated for 3 days in humidified air/CO2 (95%/5%) On day 3 the level of IL-17A in the culture supernatant is measured using alpha-LISA kit (Perkin Elmer). Cell viability was measured by adding 6 uL pr well Prestoblue© (Life Technologies) and incubating for 2 hours followed by fluorescent measurement (Ex535/Em615). EC50 values were calculated using a 4-parameter non-linear regression curve-fitting model. Donors may be pre-screened in order to select PBMC with a high secretion of IL-17A.

SMILES | EC50 [1] | EC50 [2] | EC50 [3]
Cc1cc(CN2CCN(C(=O)OC(C)C)[C@@H](C)C2)c(C)c(Nc2nnc(CC#N)o2)c1 [Example 42, isopropyl (2S)-4-[[3-[[5-(cyanomethyl)-1,3,4-oxadiazol-2-yl]amino]-2,5-dimethyl-phenyl]methyl]-2-methyl-piperazine-1-carboxylate] | 0.048 µM | 359 nM | 0.0342 µM
Cc1cc(CN2CCN(C(=O)OC(C)C)[C@@H](C)C2)c(C)c(Nc2nnc([C@H](C)O)o2)c1 [Example 66, isopropyl (2S)-4-[[3-[[5-[(1S)-1-hydroxyethyl]-1,3,4-oxadiazol-2-yl]amino]-2,5-dimethyl-phenyl]methyl]-2-methyl-piperazine-1-carboxylate] | 0.0548 µM | 140 nM | 0.0776 µM
Cc1cc(CN2CCN(C(=O)O[C@H](C)C(F)(F)F)[C@@H](C)C2)c(C)c(Nc2nnc([C@@H](O)CO)o2)c1 [Example 75, [(1R)-2,2,2-trifluoro-1-methyl-ethyl] (2S)-4-[[3-[[5-[(1S)-1,2-dihydroxyethyl]-1,3,4-oxadiazol-2-yl]amino]-2,5-dimethyl-phenyl]methyl]-2-methyl-piperazine-1-carboxylate] | 0.0324 µM | 158 nM | 0.0529 µM
Cc1c(CN2CCN(C(=O)OC(C)C)[C@@H](C)C2)cc(Cl)cc1Nc1nnc(C(O)C(F)(F)F)o1 (stereo partly drawn) [Example 47, isopropyl (2S)-4-[[5-chloro-2-methyl-3-[[5-(2,2,2-trifluoro-1-hydroxy-ethyl)-1,3,4-oxadiazol-2-yl]amino]phenyl]methyl]-2-methyl-piperazine-1-carboxylate] | 0.0266 µM | 307 nM | 0.0632 µM
CCC(F)(F)C(=O)N1CCN(Cc2cc(Cl)cc(Nc3nnc(COC)o3)c2C)C[C@@H]1C [Example 8, 1-[(2S)-4-[[5-chloro-3-[[5-(methoxymethyl)-1,3,4-oxadiazol-2-yl]amino]-2-methyl-phenyl]methyl]-2-methyl-piperazin-1-yl]-2,2-difluoro-butan-1-one] | 0.069 µM | 497 nM | 0.251 µM
COCc1nnc(Nc2cc(Cl)cc(CN3CCN(C(=O)c4ccccc4F)[C@@H](C)C3)c2C)o1 [Example 9, [(2S)-4-[[5-chloro-3-[[5-(methoxymethyl)-1,3,4-oxadiazol-2-yl]amino]-2-methyl-phenyl]methyl]-2-methyl-piperazin-1-yl]-(2-fluorophenyl)methanone] | 0.0235 µM | 254 nM | 0.0993 µM
Cc1cc(CN2CCN(C(=O)C3CCC3)[C@@H](C)C2)c(C)c(Nc2nnc(C)o2)c1 [Example 14, cyclobutyl-[(2S)-4-[[2,5-dimethyl-3-[(5-methyl-1,3,4-oxadiazol-2-yl)amino]phenyl]methyl]-2-methyl-piperazin-1-yl]methanone] | 0.0611 µM | 372 nM | 0.185 µM
CCC(F)(F)C(=O)N1CCN(Cc2cc(C)cc(Nc3nnc([C@@H](C)O)o3)c2C)C[C@@H]1C [Example 21, 2,2-difluoro-1-[(2S)-4-[[3-[[5-[(1R)-1-hydroxyethyl]-1,3,4-oxadiazol-2-yl]amino]-2,5-dimethyl-phenyl]methyl]-2-methyl-piperazin-1-yl]butan-1-one] | 0.0717 µM | 251 nM | 0.18 µM
Cc1c(CN2CCN(C(=O)c3ccccc3)[C@@H](C)C2)cc(Cl)cc1Nc1nnc(C2CCCO2)o1 (stereo partly drawn) [Example 4, [(2S)-4-[[5-chloro-2-methyl-3-[(5-tetrahydrofuran-2-yl-1,3,4-oxadiazol-2-yl)amino]phenyl]methyl]-2-methyl-piperazin-1-yl]-phenyl-methanone] | 0.0299 µM | 428 nM | 0.0347 µM
Cc1cc(CN2CCN(C(=O)OC(C)C)[C@@H](C)C2)c(C)c(Nc2nnc(-c3nonc3C)o2)c1 [Example 54, isopropyl (2S)-4-[[2,5-dimethyl-3-[[5-(4-methyl-1,2,5-oxadiazol-3-yl)-1,3,4-oxadiazol-2-yl]amino]phenyl]methyl]-2-methyl-piperazine-1-carboxylate] | 0.0163 µM | 176 nM | 0.0281 µM
CC[C@H](O)c1nnc(Nc2cc(C)cc(CN3CCN(C(=O)OC(C)C)[C@@H](C)C3)c2C)o1 [Example 62, isopropyl (2S)-4-[[3-[[5-[(1S)-1-hydroxypropyl]-1,3,4-oxadiazol-2-yl]amino]-2,5-dimethyl-phenyl]methyl]-2-methyl-piperazine-1-carboxylate] | 0.0207 µM | 103 nM | 0.0676 µM
Cc1c(CN2CCN(C(=O)OC(C)C)[C@@H](C)C2)cc(Cl)cc1Nc1nnc(C2(CO)CC2)o1 [Example 46, isopropyl (2S)-4-[[5-chloro-3-[[5-[1-(hydroxymethyl)cyclopropyl]-1,3,4-oxadiazol-2-yl]amino]-2-methyl-phenyl]methyl]-2-methyl-piperazine-1-carboxylate] | 0.0371 µM | 322 nM | 0.103 µM
Cc1cc(CN2CCN(C(=O)C3CC3)[C@@H](C)C2)c(C)c(Nc2nnc([C@@H](C)O)o2)c1 [Example 22, cyclopropyl-[(2S)-4-[[3-[[5-[(1R)-1-hydroxyethyl]-1,3,4-oxadiazol-2-yl]amino]-2,5-dimethyl-phenyl]methyl]-2-methyl-piperazin-1-yl]methanone] | 0.169 µM | 355 nM | 0.254 µM
Cc1cc(CN2CCN(C(=O)C3CCCC3)[C@@H](C)C2)c(C)c(Nc2nnc([C@H]3NCC[C@H]3O)o2)c1 [Example 78, cyclopentyl-[(2S)-4-[[3-[[5-[(2S,3R)-3-hydroxypyrrolidin-2-yl]-1,3,4-oxadiazol-2-yl]amino]-2,5-dimethyl-phenyl]methyl]-2-methyl-piperazin-1-yl]methanone] | 0.0725 µM | 157 nM | 0.0959 µM
Cc1cc(CN2CCN(C(=O)OC(C)C)[C@@H](C)C2)c(C)c(Nc2nnc([C@@H]3CNC(=O)C3)o2)c1 [Example 83, isopropyl (2S)-4-[[2,5-dimethyl-3-[[5-[(3S)-5-oxopyrrolidin-3-yl]-1,3,4-oxadiazol-2-yl]amino]phenyl]methyl]-2-methyl-piperazine-1-carboxylate] | 0.067 µM | 240 nM | 0.123 µM
Cc1cc(CN2CCN(C(=O)OC(C)(C)C)[C@@H](C)C2)c(C)c(Nc2nnc(-c3cnsn3)o2)c1 [Example 33, tert-butyl (2S)-4-[[2,5-dimethyl-3-[[5-(1,2,5-thiadiazol-3-yl)-1,3,4-oxadiazol-2-yl]amino]phenyl]methyl]-2-methyl-piperazine-1-carboxylate] | 0.0233 µM | 126 nM | 0.0452 µM
Cc1cc(CN2CCN(C(=O)OC(C)C)[C@@H](C)C2)c(C)c(Nc2nnc([C@@H]3CCOC3)o2)c1 [Example 76, isopropyl (2S)-4-[[2,5-dimethyl-3-[[5-[(3R)-tetrahydrofuran-3-yl]-1,3,4-oxadiazol-2-yl]amino]phenyl]methyl]-2-methyl-piperazine-1-carboxylate] | 0.0256 µM | 112 nM | 0.0605 µM
